Experimental findings from US8093389B2, “Substituted spirochromanone derivatives” (Merck Sharp & Dohme Corp., priority 2007, dated 2012) are described below.

Where a name gives a salt, the structure may show the parent alone.

The target in experiment [1] is human ACC2 (Homo sapiens, UniProt O00763). The experiment can be described thus: Acetyl CoA carboxylase (ACC) activity inhibition test, human ACC2. Type of experiment: biochemical. As to conditions: 1 μmol/liter test compound; read-out: Inhibition (%) by 1 μmol/liter Chemical, human ACC2. How it is done:
(§1) A. Pharmacological Test Example (Acetyl CoA Carboxylase (ACC) Activity Inhibition Test)
(§2) A test compound is dissolved in dimethyl sulfoxide (DMSO) to a concentration of 10 mM and then diluted with DMSO to give a 100-fold concentrated solution of the compound compared with target assay concentration. The ACC enzyme activity inhibition test is carried out according to a modification of Thampy & Wakil's method (J. Biol. Chem., Vol. 260, pp. 6318-6323 (1985)). Concretely, 0.8 μl of the diluted test compound is added to each well of 96-well assay plate (Perkin Elmer Opti Plate), then 40 μl of a substrate solution (50 mM Hepes sodium (pH 7.5), 2 mM DTT, 10 mM ATP, 500 μM acetyl CoA, 0.17 mM NaH[^14C]O3 (58 mCi/mmol, by Amersham), 8 mM NaHCO3) is added to each well, and 40 μL of an enzyme solution (1 to 2 nM human ACC1 or human ACC2, 50 mM Hepes sodium (pH 7.5), 2 mM DTT, 40 mM MgCl2, 40 mM tripotassium citrate 1 mg/ml fetal bovine serum albumin) is added thereto. Then, the upper side of the plate is sealed up, and the plate is incubated with gently stirring at 37° C. for 40 minutes. Next, 20 μl of 1 N HCl is added to each well to stop the enzyme reaction, and the assay plate is stirred overnight to remove the unreacted NaH[^14C]O3. Next, 100 μl of a scintillator (Perkin Elmer's Microscinti 40) is added to each well and the plate is stirred, then the radioactivity of the fixed [^14C] is counted using a microplate scintillation counter (Perkin Elmer's Topcount), the radioactivity of which represents the enzyme activity in each well. The human ACC1 and human ACC2 enzyme-inhibition activities of the test compounds are calculated, based on the radioactivity of the well added by DMSO without test compound as a control.

Experiment [2] has as its target human ACC1 (Homo sapiens, UniProt Q13085). Description: Acetyl CoA carboxylase (ACC) activity inhibition test, human ACC1. Type of experiment: biochemical. As to conditions: 1 μmol/liter test compound; read-out: Inhibition (%) by 1 μmol/liter Chemical, human ACC1. How it is done:
as §1, §2

Chain of human ACC2 (O00763 whole entry): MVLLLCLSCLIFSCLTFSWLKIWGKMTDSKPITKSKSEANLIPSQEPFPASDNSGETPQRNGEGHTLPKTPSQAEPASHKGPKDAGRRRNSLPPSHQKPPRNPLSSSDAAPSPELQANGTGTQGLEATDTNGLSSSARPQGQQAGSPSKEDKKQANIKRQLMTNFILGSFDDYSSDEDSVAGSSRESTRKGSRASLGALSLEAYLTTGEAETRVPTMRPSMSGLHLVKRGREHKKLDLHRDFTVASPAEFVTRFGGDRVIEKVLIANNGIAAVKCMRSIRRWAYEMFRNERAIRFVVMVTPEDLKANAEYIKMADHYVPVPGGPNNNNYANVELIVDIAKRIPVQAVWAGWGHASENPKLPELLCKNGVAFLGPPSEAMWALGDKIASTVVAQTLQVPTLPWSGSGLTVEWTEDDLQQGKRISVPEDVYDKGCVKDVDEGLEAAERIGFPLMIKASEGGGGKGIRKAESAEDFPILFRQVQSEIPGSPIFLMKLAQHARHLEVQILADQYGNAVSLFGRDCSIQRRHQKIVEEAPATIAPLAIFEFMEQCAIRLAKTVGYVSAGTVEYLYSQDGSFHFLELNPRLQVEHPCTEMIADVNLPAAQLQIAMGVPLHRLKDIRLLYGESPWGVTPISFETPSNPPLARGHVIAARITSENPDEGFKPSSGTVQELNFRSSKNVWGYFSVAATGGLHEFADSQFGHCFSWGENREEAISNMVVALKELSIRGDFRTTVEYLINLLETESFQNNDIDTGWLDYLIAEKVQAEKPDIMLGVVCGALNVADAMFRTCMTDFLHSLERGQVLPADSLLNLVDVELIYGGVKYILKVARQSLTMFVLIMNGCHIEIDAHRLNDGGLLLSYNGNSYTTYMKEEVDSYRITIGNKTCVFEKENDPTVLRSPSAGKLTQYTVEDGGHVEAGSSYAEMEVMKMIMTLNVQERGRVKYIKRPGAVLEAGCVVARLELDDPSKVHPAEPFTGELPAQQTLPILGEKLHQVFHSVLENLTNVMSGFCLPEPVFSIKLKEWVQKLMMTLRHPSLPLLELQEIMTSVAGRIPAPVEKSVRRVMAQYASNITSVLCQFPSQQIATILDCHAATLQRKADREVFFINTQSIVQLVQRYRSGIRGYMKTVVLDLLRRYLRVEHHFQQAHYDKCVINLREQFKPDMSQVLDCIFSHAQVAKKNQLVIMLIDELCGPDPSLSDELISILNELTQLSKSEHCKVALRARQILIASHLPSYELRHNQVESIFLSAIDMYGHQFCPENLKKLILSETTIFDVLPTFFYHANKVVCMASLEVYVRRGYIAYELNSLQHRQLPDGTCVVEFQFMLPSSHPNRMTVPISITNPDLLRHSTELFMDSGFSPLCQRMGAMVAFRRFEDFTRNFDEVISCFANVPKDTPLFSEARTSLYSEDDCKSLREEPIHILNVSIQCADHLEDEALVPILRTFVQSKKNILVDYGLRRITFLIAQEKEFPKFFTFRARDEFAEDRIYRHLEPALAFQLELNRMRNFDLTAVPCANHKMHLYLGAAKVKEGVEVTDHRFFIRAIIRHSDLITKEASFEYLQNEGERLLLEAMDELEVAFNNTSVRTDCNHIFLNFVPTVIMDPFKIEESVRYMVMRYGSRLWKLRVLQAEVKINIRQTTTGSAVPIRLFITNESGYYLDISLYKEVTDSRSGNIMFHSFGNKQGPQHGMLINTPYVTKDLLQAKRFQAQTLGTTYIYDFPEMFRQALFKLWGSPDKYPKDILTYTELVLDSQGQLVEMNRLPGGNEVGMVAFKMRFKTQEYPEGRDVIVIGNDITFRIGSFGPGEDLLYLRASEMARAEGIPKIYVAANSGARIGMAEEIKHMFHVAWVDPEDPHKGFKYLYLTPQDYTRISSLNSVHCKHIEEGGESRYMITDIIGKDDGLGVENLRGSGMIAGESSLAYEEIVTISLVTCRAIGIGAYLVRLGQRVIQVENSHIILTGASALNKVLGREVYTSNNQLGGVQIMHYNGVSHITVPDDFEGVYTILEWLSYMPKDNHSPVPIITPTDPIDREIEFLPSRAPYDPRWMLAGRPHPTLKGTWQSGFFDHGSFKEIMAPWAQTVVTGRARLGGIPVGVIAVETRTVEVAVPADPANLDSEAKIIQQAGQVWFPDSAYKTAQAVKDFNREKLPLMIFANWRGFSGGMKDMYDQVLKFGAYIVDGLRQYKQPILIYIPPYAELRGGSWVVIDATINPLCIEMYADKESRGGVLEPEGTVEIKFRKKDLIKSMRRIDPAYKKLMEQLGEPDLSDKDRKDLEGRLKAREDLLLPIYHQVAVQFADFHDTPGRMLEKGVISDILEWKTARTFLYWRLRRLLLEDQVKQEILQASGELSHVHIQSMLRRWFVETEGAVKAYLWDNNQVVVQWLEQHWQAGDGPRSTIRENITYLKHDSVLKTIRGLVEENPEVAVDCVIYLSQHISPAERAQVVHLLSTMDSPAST

`CCOc1cc(C(=O)N2CCC3(CC2)CC(=O)c2cc(-c4nnn[nH]4)ccc2O3)cc2c(C3CC3)noc12` [Example 31, 1′-[(3-cyclopropyl-7-ethoxy-1,2-benzisoxazol-5-yl)carbonyl]-6-(1H-tetrazol-5-yl)spiro[chroman-2,4′-piperidin]-4-one]: the inhibition at 1 µM in experiment [1] came out at 98%; in experiment [2] it was 97%.
Taken in the same sequence, the figures for `COc1cc(C(=O)N2CCC3(CC2)CC(=O)c2cc(-c4nnc(C(N)=O)[nH]4)ccc2O3)cc2c1ccn2C1CC1` [Example 57, 5-{1′-[(1-cyclopropyl-4-methoxy-1H-indol-6-yl)carbonyl]-4-oxo-spiro[chroman-2,4′-piperidin]-6-yl}-4H-1,2,4-triazole-3-carboxamide] were 99% and 99%.
For `CCn1ccc2c(OCCO)cc(C(=O)N3CCC4(CC3)CC(=O)c3cc(-c5nnn[nH]5)ccc3O4)cc21` [Example 4, 1′-{[1-Ethyl-4-(2-hydroxyethoxy)-1H-indol-6-yl]carbonyl}-6-(1H-tetrazol-5-yl)spiro[chroman-2,4′-piperidin]-4-one], in that order: 97% and 96%.
For `CCn1cnc2c(OC)cc(C(=O)N3CCC4(CC3)CC(=O)c3cc(-c5nnn[nH]5)ccc3O4)cc21` [Example 1, 1-[(1-Ethyl-4-methoxy-1H-benzimidazol-6-yl)carbonyl]-6-(1H-tetrazol-5-yl)spiro[chroman-2,4′-piperidine]-4-one], in that order: 89% and 91%.
For `COc1cc(C(=O)N2CCC3(CC2)CC(=O)c2cc(-c4cncc(C(=O)O)c4)ccc2O3)cc2c1c(Cl)cn2C1CC1` [Example 24, 5-{1′-[(3-Chloro-1-cyclopropyl-4-methoxy-1H-indol-6-yl)carbonyl]-4-oxo-spiro[chroman-2,4′-piperidin]-6-yl}nicotinic acid sodium salt], the inhibition at 1 µM in experiment [1] stood at 100%; in experiment [2], 99%.
Taken in the same sequence, the figures for `COc1cc(C(=O)N2CCC3(CC2)CC(=O)c2cc(-c4nnn[nH]4)ccc2O3)cc2c1ccn2OC` [Example 8, 1′-{[1,4-Dimethoxy-1H-indol-6-yl]carbonyl}-6-(1H-tetrazol-5-yl)spiro[chroman-2,4′-piperidin]-4-one] were 99% and 99%.
For `CCOc1cc(C(=O)N2CCC3(CC2)CC(=O)c2cc(-c4cncc(C(=O)O)c4)ccc2O3)cc2c1c(C)cn2C1CC1` [Example 45, 5-{1′-[(1-cyclopropyl-4-ethoxy-3-methyl-1H-indol-6-yl)carbonyl]-4-oxospiro[chroman-2,4′-piperidin]-6-yl}nicotinic acid], in that order: 100% and 100%.
Regarding `CCn1ccc2c(OC)cc(C(=O)N3CCC4(CC3)CC(=O)c3cc(-c5nnn[nH]5)ccc3O4)cc21` [Example 56, 1′-[(1-ethyl-4-methoxy-1H-indol-6-yl)carbonyl]-6-(1H-tetrazol-5-yl)spiro[chroman-2,4′-piperidin]-4-one], the inhibition at 1 µM in experiment [1] and in experiment [2] was 99% throughout.
`CCOc1cc(C(=O)N2CCC3(CC2)CC(=O)c2cc(-c4nnn[nH]4)ccc2O3)cc2c1c(C)cn2C1CC1` [Example 17, 1′-[(1-Cyclopropyl-4-ethoxy-3-methyl-1H-indol-6-yl)carbonyl]-6-(1H-tetrazol-5-yl)spiro[chroman-2,4′-piperidin]-4-one]: the inhibition at 1 µM in experiment [1] turned out to be 99%; in experiment [2] it was 98%.
Consider `COc1cc(C(=O)N2CCC3(CC2)CC(=O)c2cc(-c4noc(=O)[nH]4)ccc2O3)cc2c1ccn2C1CC1` [Example 3, 1′-[(1-Cyclopropyl-4-methoxy-1H-indol-6-yl)carbonyl]-6-(5-oxo-4,5-dihydro-1,2,4-oxadiazol-3-yl)spiro[chroman-2,4′-piperidin]-4-one], for which the inhibition at 1 µM in experiment [1] came out at 97%; in experiment [2] it was 100%.
Taken in the same sequence, the figures for `COc1cc(C(=O)N2CCC3(CC2)CC(=O)c2cc(-c4cncc(C(=O)O)c4)ccc2O3)cc2c1c(C)cn2C1CC1` [Example 23, 5-{1′-[(1-Cyclopropyl-4-methoxy-3-methyl-1H-indol-6-yl)carbonyl]-4-oxo-spiro[chroman-2,4′-piperidin]-6-yl}nicotinic acid sodium salt] were 98% and 99%.
As for `COc1cc(C(=O)N2CCC3(CC2)CC(=O)c2cc(-c4nnn[nH]4)ccc2O3)cc2c1ccn2C1CC1` [Example 11, 1′-[(1-Cyclopropyl-4-methoxy-1H-indol-6-yl)carbonyl]-6-(1H-tetrazol-5-yl)spiro[chroman-2,4′-piperidin]-4-one], the inhibition at 1 µM amounted to 98% in experiment [1] and 99% in experiment [2].
For `COc1cc(C(=O)N2CCC3(CC2)CC(=O)c2cc(-c4nnn[nH]4)ccc2O3)cn2c(C3CC3)cnc12` [Example 2, 1′-[(3-Cyclopropyl-8-methoxyimidazo[1,2-a]pyridin-6-yl)carbonyl]-6-(1H-tetrazol-5-yl)spiro[chroman-2,4′-piperidin]-4-one], in that order: 93% and 93%.
For the compound `CCn1ncc2c(OC)cc(C(=O)N3CCC4(CC3)CC(=O)c3cc(-c5nnn[nH]5)ccc3O4)cc21` [Example 10, 1′-[(1-Ethyl-4-methoxy-1H-indazol-6-yl)carbonyl]-6-(1H-tetrazol-5-yl)spiro[chroman-2,4′-piperidin]-4-one], the inhibition at 1 µM in experiment [1] stood at 96%; in experiment [2], 93%.
For `CCOc1cc(C(=O)N2CCC3(CC2)CC(=O)c2cc(-c4nnn[nH]4)ccc2O3)cc2c1ccn2C1CC1` [Example 13, 1′-[(1-Cyclopropyl-4-ethoxy-1H-indol-6-yl)carbonyl]-6-(1H-tetrazol-5-yl)spiro[chroman-2,4′-piperidin]-4-one], in that order: 99% and 100%.
Taken in the same sequence, the figures for `O=C1CC2(CCN(C(=O)c3cc(OCCO)c4ccn(C5CC5)c4c3)CC2)Oc2ccc(-c3nnn[nH]3)cc21` [Example 36] were 99% and 99%.
On to `COc1cc(C(=O)N2CCC3(CC2)CC(=O)c2cc(-c4cccc(C(=O)O)c4)ccc2O3)cc2c1ccn2C1CC1` [Example 5, Sodium 3-{1′-[(1-cyclopropyl-4-methoxy-1H-indol-6-yl)carbonyl]-4-oxospiro[chroman-2,4′-piperidin]-6-yl}benzoate], for which the inhibition at 1 µM in experiment [1] and in experiment [2] was 99% throughout.
`COc1cc(C(=O)N2CCC3(CC2)CC(=O)c2cc(-c4cncc(C(=O)O)c4)ccc2O3)cc2c1ccn2C1CC1` [Example 7, 5-{1′-[(1-Cyclopropyl-4-methoxy-1H-indol-6-yl)carbonyl]-4-oxospiro[chroman-2,4′-piperidin]-6-yl}nicotinic acid sodium salt]: the inhibition at 1 µM was 99% in experiment [1] and 100% in experiment [2].
